Assay results taken from patent US12391660B2, “Heteroaromatic acetamide derivative, and preparation and use thereof” (Hangzhou Westan Pharmaceutical Technology Co., Ltd, priority 2019, dated 2025).

What was measured:
human TRPA1 = human TRPA1 (Homo sapiens (Human), UniProt O75762); test: Inhibitory activity on human TRPA1 by conventional patch clamp assay; assay type: cell-based; conditions: for inhibition at 5 µM: read-out: TRPA1 % Inhibition rate (5 μM); for IC50: HEK293 human TRPA1, 100 μM cinnamaldehyde
human TRPA1, sequence (O75762 whole entry): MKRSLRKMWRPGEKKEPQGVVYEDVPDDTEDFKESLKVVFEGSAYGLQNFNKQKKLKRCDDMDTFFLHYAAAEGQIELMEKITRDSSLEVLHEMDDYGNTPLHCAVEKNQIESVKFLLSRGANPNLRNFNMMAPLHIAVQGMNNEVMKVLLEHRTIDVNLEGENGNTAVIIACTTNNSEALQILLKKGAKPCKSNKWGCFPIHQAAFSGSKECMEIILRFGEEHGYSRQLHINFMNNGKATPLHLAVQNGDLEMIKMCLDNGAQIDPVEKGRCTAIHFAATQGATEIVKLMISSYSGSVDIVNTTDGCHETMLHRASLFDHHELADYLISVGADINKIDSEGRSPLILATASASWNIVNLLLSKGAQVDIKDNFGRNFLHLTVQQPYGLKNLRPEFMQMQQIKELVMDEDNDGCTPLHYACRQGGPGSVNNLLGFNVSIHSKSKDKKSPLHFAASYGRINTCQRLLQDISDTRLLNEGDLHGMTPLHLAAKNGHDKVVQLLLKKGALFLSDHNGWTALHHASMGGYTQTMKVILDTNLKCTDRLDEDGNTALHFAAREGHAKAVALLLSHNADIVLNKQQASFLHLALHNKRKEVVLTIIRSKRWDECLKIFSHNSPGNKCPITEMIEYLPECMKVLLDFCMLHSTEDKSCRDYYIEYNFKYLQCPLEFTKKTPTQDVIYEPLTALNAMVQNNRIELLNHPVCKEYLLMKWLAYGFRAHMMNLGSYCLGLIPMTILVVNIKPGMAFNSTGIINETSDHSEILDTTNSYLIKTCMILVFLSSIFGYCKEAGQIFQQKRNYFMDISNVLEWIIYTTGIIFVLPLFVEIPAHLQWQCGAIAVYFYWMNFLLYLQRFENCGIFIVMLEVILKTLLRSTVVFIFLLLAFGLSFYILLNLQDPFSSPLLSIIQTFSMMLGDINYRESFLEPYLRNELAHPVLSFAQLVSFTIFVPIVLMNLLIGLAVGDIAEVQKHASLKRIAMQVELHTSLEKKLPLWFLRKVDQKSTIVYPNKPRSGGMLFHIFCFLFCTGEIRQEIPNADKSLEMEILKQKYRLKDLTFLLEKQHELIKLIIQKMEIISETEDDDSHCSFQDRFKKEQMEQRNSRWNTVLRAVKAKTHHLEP
From the text: 2. Inhibitory Activity on Human TRPA1 by Conventional Patch Clamp Assay
In order to compare the influences of different measuring methods on the inhibitory activity of compounds, a conventional patch clamp method was used to further measure the inhibitory activity of compounds 1, 11, 31, 50, and 78 on TRPA1. The principle and procedures of the conventional patch clamp assay could be found in the literature report of Chen et al [Chen et al. Pain 2011, 152(5):1165-72].
(§1) Evaluation of TRPA1 inhibitory activity of compounds was conducted using the HEK293 recombinant cell strain (Creative Biogene, NY) stably expressing human TRPA1. Cells were cultured in a DMEM/F12 (3:1, Thermo Fisher Scientific) medium (containing 5% calf serum, 2 mM glutamine and 20 mM HEPES) in an incubator at 37° C. and air humidity containing 5% CO2.
(§2) During the experiment, the adherent cells were placed in a recording room under the inverted microscope. All experiments were performed at room temperature. Each cell itself was used as a control thereof.
Test compounds at a final concentration were all prepared on the testing day and then dissolved in the extracellular fluid. The extracellular fluid was (mM): NaCl, 137; KCl, 4; CaCl2, 1.8; MgCl2, 1; HEPES, 10; glucose 10; pH 7.4 (NaOH titration). All the solutions of the test compounds and control compounds contained 0.3% DMSO.
The compounds were all perfused with a perfusion system by virtue of their own gravity. At least two cells were tested for each concentration of the compound. After the current became stable, the variation in magnitude of the current before and after the compound was used to calculate the blocking effect of the compound. 100 μM cinnamaldehyde was used as the positive control.
The cells were transferred to the perfusion tank and perfused with extracellular fluid. The intracellular fluid was: 130 mM K-aspartate; 5 mM MgCl2; 5 mM EGTA; 10 mM
HEPES; pH 7.2 (KOH titration). The intracellular fluid was stored in a small amount in a −80 degree refrigerator in batches, and thawed on the day of the experiment. The electrode was pulled with PC-10 (Narishige, Japan). Whole-cell patch clamp recording was adopted and noise was filtered at one-fifth of the sampling frequency.
The cells were clamped at 20 mV, and then depolarized to 80 mV with a square wave of 500 milliseconds to obtain the TRPA1 current (see FIG. 1).
This procedure was repeated every 3 seconds. Cells were patched in a normal extracellular fluid, current A was obtained via voltage procedure testing, and then perfusion was conducted with an extracellular fluid added with 100 μM cinnamaldehyde to activate TRPA1 current to obtain current B. After the current stabilized, elution was conducted with normal extracellular fluid and perfusion was conducted with an extracellular fluid added with 100 μM cinnamaldehyde and a compound at various concentrations to obtain current C. Finally, blocking rate of the compound was obtained according to […], see FIG. 2.
Data collection and analysis was conducted using pCLAMP 10 (Molecular Devices, Union City, CA). Current stabilization meant that the variation in the current with time was within a limited range. The magnitude of the current after stabilization was used to reflect the effect of the compound in this process.

human TRPC6 = human TRPC6 (Homo sapiens (Human), UniProt Q9Y210); test: Inhibitory activity on human TRPC6 by conventional patch clamp assay; assay type: cell-based; conditions: HEK293 human TRPC6, read-out: TRPC6 Inhibition rate (5 μM)
human TRPC6, sequence (Q9Y210 whole entry): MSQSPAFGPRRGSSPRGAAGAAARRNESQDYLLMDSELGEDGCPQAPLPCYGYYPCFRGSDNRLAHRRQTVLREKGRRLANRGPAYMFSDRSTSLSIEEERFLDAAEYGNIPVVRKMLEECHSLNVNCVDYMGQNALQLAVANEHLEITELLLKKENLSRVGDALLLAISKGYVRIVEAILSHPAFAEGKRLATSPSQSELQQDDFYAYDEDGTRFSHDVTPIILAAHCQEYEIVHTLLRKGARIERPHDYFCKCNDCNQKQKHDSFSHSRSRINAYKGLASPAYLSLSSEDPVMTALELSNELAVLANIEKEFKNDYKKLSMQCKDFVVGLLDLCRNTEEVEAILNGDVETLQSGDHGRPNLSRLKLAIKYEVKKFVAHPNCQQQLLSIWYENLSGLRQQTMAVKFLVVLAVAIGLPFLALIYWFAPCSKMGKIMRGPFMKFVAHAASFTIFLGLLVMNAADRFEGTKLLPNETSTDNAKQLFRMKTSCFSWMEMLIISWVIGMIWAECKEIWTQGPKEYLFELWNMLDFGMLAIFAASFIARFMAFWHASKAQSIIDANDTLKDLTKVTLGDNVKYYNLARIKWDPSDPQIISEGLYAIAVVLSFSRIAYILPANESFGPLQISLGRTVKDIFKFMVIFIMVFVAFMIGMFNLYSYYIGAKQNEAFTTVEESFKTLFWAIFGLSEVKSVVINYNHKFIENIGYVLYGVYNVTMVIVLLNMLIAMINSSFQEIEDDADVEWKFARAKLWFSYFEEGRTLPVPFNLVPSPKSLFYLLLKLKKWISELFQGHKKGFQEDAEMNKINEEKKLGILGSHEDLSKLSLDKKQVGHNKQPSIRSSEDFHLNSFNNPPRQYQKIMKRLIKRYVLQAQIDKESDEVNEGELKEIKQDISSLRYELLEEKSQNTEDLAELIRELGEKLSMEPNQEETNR
Description: 3. Inhibitory Activity on Human TRPC6 by Conventional Patch Clamp Assay
In order to test the selectivity of the compounds in TRPA1 inhibition, a conventional patch clamp method was used to further measure the inhibitory activity of compounds on TRPC6. The principle and procedures of the conventional patch clamp assay could be found in the literature report of Ambrus et al [Ambrus et al. J Cell and Mol Med 2015, 19 (12):2771-9].
as §1, with “TRPC6” for “TRPA1”, “TRPC6.” for “TRPA1.”
as §2
Test compounds at a final concentration were all prepared on the testing day and then dissolved in the extracellular fluid. The extracellular fluid was (mM): NaCl, 137; KCl, 4; CaCl2, 1.8; MgCl2, 1; HEPES, 10; glucose 10; pH 7.4 (NaOH titration). Low-Ca extracellular fluid was (mM): NaCl, 138.3; KCl, 4; CaCl2, 0.5; MgCl2, 1; HEPES, 10; glucose 10; pH 7.4 (NaOH titration). […]

SMILES | inhibition at 5 µM (human TRPA1) [%] | IC50 (human TRPA1) [nM] | inhibition at 5 µM (human TRPC6) [%]
N#Cc1ccc(NC2(C(=O)N3CCN(c4ccc(C(F)(F)F)cc4)CC3)CCCC2)cc1 [Compound 1, 4-((1-(4-(4-(trifluoromethyl)phenyl)piperazine-1-carbonyl)cyclopentyl)amino)benzonitrile] | 99 | 56 | -60
CC(C)(C)C1CCN(C(=O)C2(Nc3ccc(C#N)cc3)CCCC2)CC1 [Compound 31, 4-((1-(4-(tert-butyl)piperidine-1-carbonyl)cyclopentyl)amino)benzonitrile] | 117 | 98 | 26
